Test results as given in publication PMC9959553, “Promising Antifungal Molecules against Mucormycosis Agents Identified from Pandemic Response Box®: In Vitro and In Silico Analyses” (Journal of Fungi, 2023).

Each molecule was assayed on R. oryzae UCP1295 (assay: Screening of the Pandemic Response Box library at 5 µM). Conditions: 48 h, Table S1, mean of the four values.
Format: cell-based, Rhizopus oryzae
In short: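 Compounds at 5 μM in RPMI 1640 with 2% glucose and MOPS (0.165 mol/L, pH 7.2), with conidia at 2 × 10^5/mL, incubated 48 h at 37 °C in 5% CO2. Growth read by OD at 600 nm; hits defined as ≥60% inhibition. Posaconazole (5 μM) and 1% DMSO as controls.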

Point of comparison: `O=S(=O)(NCB(O)O)c1cc2c(Cl)ccc(Cl)c2s1` [MMV1580841], “% of growth inhibition, Mean” value -42.4%. Against it:
- C[C@H](NC(=O)C(=O)Nc1ccccc1C(C)(C)C)C(=O)N[C@@H](CC(=O)O)C(=O)COc1c(F)c(F)cc(F)c1F [MMV1580794] — higher, 1.8%
- CC[C@@]1(O)C(=O)OCc2c1cc1n(c2=O)Cc2cc3c([N+](=O)[O-])cccc3nc2-1 [MMV1580796] — higher, -1.7%
- OCCC#Cc1nc(-c2ccc(F)cc2)c(-c2ccncc2)n1CCCc1ccccc1 [MMV1580797] — higher, -16.9%
- Cc1[nH]c2ccccc2c1CC(=O)N[C@@H](Cc1ccccc1)C(=O)N(C)c1ccccc1 [MMV1580798] — higher, -2.6%
- COc1ccc(COc2cc3oc(=O)c4cc(C(C)O)ccc4c3cc2OC)cc1 (centres unmarked) [MMV1580799] — higher, -1.6%
- N#Cc1cc([N+](=O)[O-])ccc1Oc1ccccc1Cl [MMV1580800] — higher, -8.1%
- Cc1nc2ccc(Cl)cc2c(-c2ccccc2)c1CC(=O)O [MMV1580801] — higher, -8.7%
- Nc1nc(NC2Cc3ccc(F)cc3C2)nc(N2CCCCC2)n1 (centres unmarked) [MMV1580839] — higher, -3.1%
- O=C(Nc1ccc(Cl)c(C(F)(F)F)c1)C(CCCl)C(=O)Nc1ccc(Cl)c(C(F)(F)F)c1 [MMV1580840] — higher, -7.5%
- Clc1cc2nc(C3CCNCC3)n(Cc3ccc(CNCCc4c[nH]cn4)cc3)c2cc1Cl [MMV1580842] — higher, 0.4%
- C[Si]1(C)CCN(Cc2cc(-c3ccc(Cl)cc3)n(-c3ccc(Cl)cc3)n2)CC1 [MMV1580843] — higher, -17.9%
- CC(=O)N[C@H](C)C(=O)N[C@H](Cc1ccccc1)C(=O)O [MMV1580845] — higher, -37.6%
- COc1ccc(SC(=O)N[C@H](CCC(=O)O)C(=O)O)cc1 [MMV1580846] — higher, -33.5%
- CCCCCc1ccc(C(=O)NCCn2cc(CCCCCc3c[nH]c(N)n3)nn2)cc1.Cl [MMV1580847] — higher, -16.8%
- NC(=O)c1cnc2ccc(S(=O)(=O)c3ccccc3)cc2c1Nc1ccc(O)cc1 [MMV1580848] — higher, -15.6%
- C=CCc1cc(Cc2cnc(N)nc2N)cc(OC)c1O [MMV1580849] — higher, -19.9%
- Fc1ccc(-n2cc(Cn3c(-c4cccc(F)c4)nc4ccccc43)nn2)cc1 [MMV1580850] — higher, -26.0%
- CCCCCOc1ccc(/C=C2\Oc3c(ccc(O)c3O)C2=O)c(O)c1 [MMV1580851] — higher, -13.7%
- CCCCc1ccc(-c2cc(C(=O)O)cc(-c3ccc(Cl)cc3)n2)cc1 [MMV1580852] — higher, -12.9%
- O=C(Nc1cccc(C2=NCCN2)c1)c1ccc(-c2ccc(C(=O)Nc3cccc(C4=NCCN4)c3)cc2)cc1 [MMV1580853] — higher, -34.0%
- CCc1cc(O)c(Oc2cccnc2N)cc1F [MMV1580854] — higher, -36.7%
- O=C(O)c1sccc1S(=O)(=O)n1ccc2cc(Br)ccc21 [MMV1580855] — higher, -1.0%
- Cc1ccccc1NC(=O)Nc1cccc([N+](=O)[O-])c1 [MMV1581029] — higher, 1.6%
- CN(C(=O)C1(c2ccc(Cl)cc2)CCC1)c1ccccc1 [MMV1581030] — higher, -7.5%
- FC(F)(F)Oc1ccc(Nc2ccc3cccc(Cl)c3n2)cc1 [MMV1581032] — higher, -3.7%
- N[C@H](CCC(=O)N[C@@H](Cc1c[nH]c2ccccc12)C(=O)O)C(=O)O [MMV1581033] — higher, 2.8%
- Cc1c(F)cccc1NC(=O)Nc1ccc(Cl)c(S(=O)(=O)[C@H]2CCCNC2)c1O [MMV1581034] — higher, -0.9%
- NC(=O)c1ccc(I)c([N+](=O)[O-])c1 [MMV1581035] — higher, -5.0%
- COc1ccc(C[C@@H](C)[C@@H](C)Cc2ccc(OC)c(OC)c2)cc1OC [MMV1581036] — higher, -8.8%
- O=C1[C@H](CC[C@H](O)c2ccc(F)cc2)[C@@H](c2ccc(O)cc2)N1c1ccc(F)cc1 [MMV1581377] — higher, 3.5%
- Nc1ccc2oc(=O)ccc2c1I [MMV1581378] — higher, -3.7%
- Cc1cc(O)c2c(c1)C(=O)c1c(I)c(O)c(I)c(O)c1C2=O [MMV1581545] — higher, -41.8%
- O=c1cc(Nc2ccc3ccccc3c2)[nH]c(=O)[nH]1 [MMV1581546] — higher, -6.0%
- CC(C)(C)OC(=O)NCc1ccc(C(=O)N[C@H]2CCOC2=O)cc1 [MMV1581547] — higher, -3.1%
- CC(C)(C)c1cccc(-c2nc3cc(C(=N)N)ccc3[nH]2)c1O [MMV1581548] — higher, -15.8%
- CCc1nc(N)nc(N)c1C#CCc1ccccc1 [MMV1581549] — higher, 18.7%
- OC1O[C@H](CSc2ccc(F)cc2)[C@@H](O)[C@H]1O (some centres unmarked) [MMV1581550] — higher, -29.6%
- c1ccc(-c2nnc3c4ccccc4c(N4CCNCC4)nn23)cc1 [MMV1581551] — higher, -11.4%
- O=C(Nc1ccccc1)N(Cc1cc(Br)ccc1O)c1ccc(F)cc1 [MMV1581552] — higher, -12.1%
- COc1ccc2c(c1)cc(CNC(=O)c1cc3ccccc3o1)n2CC(=O)O [MMV1581553] — higher, -20.7%
- Nc1cc(N)c2nc(-c3ccccc3)c(Nc3ccc(F)cc3)nc2c1 [MMV1581554] — higher, -29.5%
- Nc1cccc(-c2nc(N)nc(NC3Cc4ccccc4C3)n2)c1 [MMV1581555] — higher, -6.9%
- NC(=O)c1[nH]c2ccc(S(N)(=O)=O)cc2c1-c1ccccc1 [MMV1581556] — lower, -42.8%
- O=C(N[C@H](CCS)C(=O)N[C@H](Cc1ccccc1)C(=O)O)c1cc2ccccc2[nH]1 [MMV1581557] — higher, 0.3%
- Cc1cccc(C)c1C(=O)Nc1nc(-c2ccccn2)cc2ccccc12 [MMV1581558] — higher, 53.3%
- CC(C)Cn1c(=O)n(C)c(=O)c2c(-c3cncn3C)n(Cc3cccc4ccccc34)nc21 [MMV1581559] — higher, -18.9%
- CC(=N)N1CC[C@H](SC2=C(C(=O)O)N3C(=O)[C@@H]([C@@H](C)O)[C@H]3C2)C1 [MMV1582382] — higher, -12.0%
- CCCCCCCCC(CP(=O)(O)C(C)N)C(=O)O (centres unmarked) [MMV1582487] — higher, -11.5%
- Cl.Nc1nc(-c2ccccc2)nc2c1ncn2[C@@H]1O[C@H](COS(=O)(=O)NC(=O)c2ccccc2O)[C@@H](O)[C@H]1O [MMV1582488] — higher, -7.5%
- Cc1c[nH]c(=O)nc1NCc1ccccc1 [MMV1582489] — higher, -18.8%
- CCc1cc(Cc2cnc(N)nc2N)cc2c1N(C)CCC2C (centres unmarked) [MMV1582490] — higher, -3.0%
- O=C(CCCC(F)(F)F)N1CCC(c2nc(-c3nccs3)no2)CC1 [MMV1582491] — higher, -26.7%
- Cc1nc(-c2ccc(C3N(C)c4ccc(F)cc4C(=O)N3c3ccccc3)s2)cs1 (centres unmarked) [MMV1582492] — higher, -6.7%
- C[C@@H](NC(=O)c1ccccc1-c1ccccc1)B(O)O [MMV1582493] — higher, -37.1%
- C[C@@H](O)[C@H](N)C(=O)NS(=O)(=O)c1cccc(-c2ccc3[nH]ncc3c2)c1.Cl.Cl [MMV1582494] — higher, -14.6%
- C(=C\c1nc2ccccc2[nH]1)/c1ccc2c(c1)OCO2 [MMV1582495] — higher, -6.2%
- N#Cc1c(F)c(Cl)c(NCc2ccccc2)c(C#N)c1F [MMV1582496] — higher, -1.3%
- CC(C)c1ccc(COc2cccc(-c3cc([S+](C)[O-])c(C#N)c(=O)[nH]3)c2)cc1 (centres unmarked) [MMV1582497] — higher, -17.1%
- Cc1cc(Nc2ccc(F)cc2)nc(SCc2nc3ccccc3[nH]2)n1 [MMV1582498] — higher, -17.0%
- CCC(CC)[C@H](NC(C)=O)[C@@H]1[C@H](O)[C@@H](C(=O)O)C[C@H]1NC(=N)N [MMV1593511] — higher, 1.4%
- CCCCCCCCCN1C[C@@H](O)[C@H](O)[C@@H](O)[C@@H]1CO [MMV1593513] — higher, -2.2%
- CNC(=O)C1O[C@@H](n2cnc3c(NCc4cccc(I)c4)nc(Cl)nc32)[C@H](O)[C@@H]1O (some centres unmarked) [MMV1593514] — higher, -5.2%
- CCOC(=O)N[C@@H]1CC[C@@H]2[C@@H](C1)C[C@H]1C(=O)O[C@H](C)[C@H]1[C@H]2/C=C/c1ccc(-c2cccc(F)c2)cn1 [MMV1593515] — higher, 26.6%
- O=C(O)[C@H]1C2CCC(CC2)[C@@H]1Nc1nc(-c2c[nH]c3ncc(F)cc23)ncc1F [MMV1593516] — higher, -10.6%
- O=C(/C=C/n1cnc(-c2cc(C(F)(F)F)cc(C(F)(F)F)c2)n1)NNc1cnccn1 [MMV1593517] — higher, -8.5%
- C[C@@]1(O)[C@H](O)[C@@H](CO)O[C@H]1n1ccc2c(N)ncnc21 [MMV1593519] — higher, 10.3%
- [N-]=[N+]=N[C@H]1C[C@H](n2ccc(=O)[nH]c2=O)O[C@@H]1CO [MMV1593520] — higher, 4.5%
- CC(C)Nc1nc2cc(Cl)c(Cl)cc2n1[C@H]1O[C@@H](CO)[C@H](O)[C@@H]1O [MMV1593521] — higher, -13.4%
- O=C(Nc1ccc(-c2ccccc2)cc1)C1=C(O)C(Cc2ccccc2)OC1=O (centres unmarked) [MMV1593531] — higher, -29.2%
- O=C(Nc1ncc(Cc2cccc3ccccc23)s1)C1CCCCC1 [MMV1593532] — higher, -14.7%
- C[C@H]1[C@@H](c2cccc(C(F)(F)F)c2)OC(=O)N1C(=O)NCc1cncc2ccccc12 [MMV1593533] — higher, -13.8%
- CCNC(=O)Nc1cc(-c2ccccc2)c(-c2cncc(C(=O)O)c2)cn1 [MMV1593534] — higher, -20.0%
- CCCCCCC1c2ccc(O)cc2Oc2cc(O)ccc21 [MMV1593535] — higher, -3.0%
- Fc1ccc(-c2nc(-c3c[nH]c4ccc(Br)cc34)[nH]c2-c2ccc(F)cc2)cc1 [MMV1593537] — higher, -11.7%
- Cl.NC1(C(=O)O)CCP(=O)(O)CC1 (centres unmarked) [MMV1593538] — higher, 0.4%
- O=[N+]([O-])c1ccc2c(CCc3c[nH]c4ccccc34)c[nH]c2c1 [MMV1593539] — higher, -2.0%
